Reference: PubChem BioAssay (NCI)
“And” between values parts separate entries of the source, which are not always exact repeats. Equal values may be shown once.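 The compound was tested at five concentrations on cells cultured in 96-well plates, with a 48-hour exposure period. GI50 marks 50% less growth. TGI denotes the concentration required for complete inhibition of growth.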

System: NCI-H522 lung
Assay: NCI tumour cell line growth inhibition, 48 h

**Q.** Which TGI does the source give for `Cc1coc2c1CC1(C)C(CCC(O)C1C)C2` (stereo not given) here?
**A.** > 100 µM

**Q.** With `C#Cc1ccc(-n2c(/C=C/c3ccc(C(F)(F)F)cc3)nc3ncccc3c2=O)cc1` as the molecule, how does the GI50 read?
**A.** 1.65 µM

**Q.** And the TGI?
**A.** 3.08 µM

**Q.** How did the TGI turn out when `COc1ccc2c3c1C(=O)CCCC3CO2` (stereo not given) was run?
**A.** > 100 µM

System: A549 NSCLC
Assay: NCI tumour cell line growth inhibition, 48 h

**Q.** For `COC1(OC)CCC2C1C1CCC(OC)(OC)C21` (stereo not given), which TGI is on record?
**A.** > 50 µM

**Q.** Which GI50 does the source give for `CC/C=C\CCC/C=C1/C(=O)C=C[C@@H]1C/C=C\CCCC(=O)OC` here?
**A.** 11.1 µM

**Q.** What about the TGI of the same molecule?
**A.** 28.4 µM

**Q.** `Cn1cnc([N+](=O)[O-])c1Sc1nnc(-c2cccnc2)n1C` was tested. Which TGI did it give?
**A.** > 100 µM

**Q.** Which TGI does the source give for `CCOC(=O)C1=C(C)NC(=S)NC1c1ccccc1` (stereo not given) here?
**A.** > 100 µM

**Q.** `COC1=CC(=O)c2nc(-c3ccncc3)[nH]c2C1=O` was tested. Which GI50 did it give?
**A.** > 100 µM

**Q.** What about the TGI of the same molecule?
**A.** > 100 µM

**Q.** `O=C(/C=C/c1ccccc1)NC1C=Nc2ccc(Cl)cc2NC1=O` (stereo not given) was tested. Which TGI did it give?
**A.** > 100 µM

**Q.** Which TGI does the source give for `COC1CCC2C(NS(=O)(=O)c3ccc(C)cc3)CCCC2O1` (stereo not given) (tested in a mixture with another compound) here?
**A.** > 34.5 µM

**Q.** How did the TGI turn out when `CC(C)C/C(CC(=O)CCC(=O)Nc1ccccc1[N+](=O)[O-])=N\NC(=O)c1cc2ccccc2cc1O` was run?
**A.** > 100 µM

**Q.** For `O=C(O)c1ccccc1[Se][Se]c1ccccc1C(=O)O`, which TGI is on record?
**A.** > 100 µM

**Q.** How did the GI50 turn out when `Cn1cc(C2=C(c3cn(C)c4ncccc34)C(=O)NC2=O)c2ccccc21` was run?
**A.** 10.1 µM

**Q.** What about the TGI of the same molecule?
**A.** > 25 µM

**Q.** With `Cc1coc2c1CC1(C)C(CCC(O)C1C)C2` (stereo not given) as the molecule, how does the TGI read?
**A.** > 100 µM

**Q.** Which GI50 does the source give for `C#Cc1ccc(-n2c(/C=C/c3ccc(C(F)(F)F)cc3)nc3ncccc3c2=O)cc1` here?
**A.** 1.83 µM

**Q.** What about the TGI of the same molecule?
**A.** 4.56 µM

**Q.** `COc1ccc2c3c1C(=O)CCCC3CO2` (stereo not given) was tested. Which TGI did it give?
**A.** > 100 µM

System: HOP-62 NSCLC
Assay: NCI tumour cell line growth inhibition, 48 h

**Q.** How did the GI50 turn out when `CC[C@@]1(O)C[C@H](OC2CC(N(C)C)C(O)C(C)O2)c2c(O)c3c(c(O)c2[C@H]1OC1CC(N(C)C)C(O)C(C)O1)C(=O)c1cccc(O)c1C3=O` (stereo not given in full) was run?
**A.** < 0.01 µM

**Q.** What about the TGI of the same molecule?
**A.** 0.192 µM

**Q.** How did the TGI turn out when `COC1(OC)CCC2C1C1CCC(OC)(OC)C21` (stereo not given) was run?
**A.** > 50 µM

**Q.** `CC/C=C\CCC/C=C1/C(=O)C=C[C@@H]1C/C=C\CCCC(=O)OC` was tested. Which GI50 did it give?
**A.** 3.54 µM

**Q.** What about the TGI of the same molecule?
**A.** 11 µM

**Q.** `Cn1cnc([N+](=O)[O-])c1Sc1nnc(-c2cccnc2)n1C` was tested. Which TGI did it give?
**A.** > 100 µM

**Q.** `CCOC(=O)C1=C(C)NC(=S)NC1c1ccccc1` (stereo not given) was tested. Which TGI did it give?
**A.** > 100 µM

**Q.** Which results are given for `COC1=CC(=O)c2nc(-c3ccncc3)[nH]c2C1=O`?
**A.** GI50: > 100 µM; TGI: > 100 µM

**Q.** Which TGI does the source give for `O=C(/C=C/c1ccccc1)NC1C=Nc2ccc(Cl)cc2NC1=O` (stereo not given) here?
**A.** > 100 µM

**Q.** How did the TGI turn out when `COC1CCC2C(NS(=O)(=O)c3ccc(C)cc3)CCCC2O1` (stereo not given) (tested in a mixture with another compound) was run?
**A.** > 34.5 µM

**Q.** How did the TGI turn out when `CC(C)C/C(CC(=O)CCC(=O)Nc1ccccc1[N+](=O)[O-])=N\NC(=O)c1cc2ccccc2cc1O` was run?
**A.** > 100 µM

**Q.** How did the TGI turn out when `O=C(O)c1ccccc1[Se][Se]c1ccccc1C(=O)O` was run?
**A.** 73.5 µM

**Q.** `Cn1cc(C2=C(c3cn(C)c4ncccc34)C(=O)NC2=O)c2ccccc21` was tested. Which GI50 did it give?
**A.** 10.9 µM

**Q.** And the TGI?
**A.** > 25 µM

**Q.** `Cc1coc2c1CC1(C)C(CCC(O)C1C)C2` (stereo not given) was tested. Which TGI did it give?
**A.** > 100 µM

**Q.** With `C#Cc1ccc(-n2c(/C=C/c3ccc(C(F)(F)F)cc3)nc3ncccc3c2=O)cc1` as the molecule, how does the GI50 read?
**A.** 2.43 µM

**Q.** What about the TGI of the same molecule?
**A.** 5.11 µM

**Q.** Which TGI does the source give for `COc1ccc2c3c1C(=O)CCCC3CO2` (stereo not given) here?
**A.** > 100 µM

System: EKVX NSCLC
Assay: NCI tumour cell line growth inhibition, 48 h

**Q.** Which results are given for `CC[C@@]1(O)C[C@H](OC2CC(N(C)C)C(O)C(C)O2)c2c(O)c3c(c(O)c2[C@H]1OC1CC(N(C)C)C(O)C(C)O1)C(=O)c1cccc(O)c1C3=O` (stereo not given in full)?
**A.** GI50: < 0.01 µM; TGI: 0.538 µM and 0.167 µM

**Q.** How did the TGI turn out when `COC1(OC)CCC2C1C1CCC(OC)(OC)C21` (stereo not given) was run?
**A.** > 50 µM

**Q.** For `CC/C=C\CCC/C=C1/C(=O)C=C[C@@H]1C/C=C\CCCC(=O)OC`, which GI50 is on record?
**A.** 4.56 µM

**Q.** What about the TGI of the same molecule?
**A.** 15.6 µM

**Q.** How did the TGI turn out when `Cn1cnc([N+](=O)[O-])c1Sc1nnc(-c2cccnc2)n1C` was run?
**A.** 66.4 µM

**Q.** With `CCOC(=O)C1=C(C)NC(=S)NC1c1ccccc1` (stereo not given) as the molecule, how does the TGI read?
**A.** > 100 µM

**Q.** With `COC1=CC(=O)c2nc(-c3ccncc3)[nH]c2C1=O` as the molecule, how does the GI50 read?
**A.** > 100 µM

**Q.** What about the TGI of the same molecule?
**A.** > 100 µM

**Q.** With `O=C(/C=C/c1ccccc1)NC1C=Nc2ccc(Cl)cc2NC1=O` (stereo not given) as the molecule, how does the TGI read?
**A.** > 100 µM

**Q.** How did the TGI turn out when `COC1CCC2C(NS(=O)(=O)c3ccc(C)cc3)CCCC2O1` (stereo not given) (tested in a mixture with another compound) was run?
**A.** > 34.5 µM

**Q.** How did the TGI turn out when `CC(C)C/C(CC(=O)CCC(=O)Nc1ccccc1[N+](=O)[O-])=N\NC(=O)c1cc2ccccc2cc1O` was run?
**A.** > 100 µM

**Q.** With `Cc1coc2c1CC1(C)C(CCC(O)C1C)C2` (stereo not given) as the molecule, how does the TGI read?
**A.** > 100 µM

System: CCRF-CEM leukemia
Assay: NCI tumour cell line growth inhibition, 48 h

**Q.** What does the source list for `CC[C@@]1(O)C[C@H](OC2CC(N(C)C)C(O)C(C)O2)c2c(O)c3c(c(O)c2[C@H]1OC1CC(N(C)C)C(O)C(C)O1)C(=O)c1cccc(O)c1C3=O` (stereo not given in full)?
**A.** GI50: < 0.01 µM; TGI: 0.204 µM

**Q.** `COC1(OC)CCC2C1C1CCC(OC)(OC)C21` (stereo not given) was tested. Which TGI did it give?
**A.** > 50 µM

**Q.** Which GI50 does the source give for `CC/C=C\CCC/C=C1/C(=O)C=C[C@@H]1C/C=C\CCCC(=O)OC` here?
**A.** 2.57 µM

**Q.** What about the TGI of the same molecule?
**A.** 8.32 µM

**Q.** How did the TGI turn out when `Cn1cnc([N+](=O)[O-])c1Sc1nnc(-c2cccnc2)n1C` was run?
**A.** 45 µM

**Q.** With `CCOC(=O)C1=C(C)NC(=S)NC1c1ccccc1` (stereo not given) as the molecule, how does the TGI read?
**A.** > 76.9 µM

**Q.** Which GI50 does the source give for `COC1=CC(=O)c2nc(-c3ccncc3)[nH]c2C1=O` here?
**A.** > 100 µM

**Q.** What about the TGI of the same molecule?
**A.** > 100 µM

**Q.** With `O=C(/C=C/c1ccccc1)NC1C=Nc2ccc(Cl)cc2NC1=O` (stereo not given) as the molecule, how does the TGI read?
**A.** 33.5 µM

**Q.** With `COC1CCC2C(NS(=O)(=O)c3ccc(C)cc3)CCCC2O1` (stereo not given) (tested in a mixture with another compound) as the molecule, how does the TGI read?
**A.** > 34.5 µM

**Q.** Which TGI does the source give for `CC(C)C/C(CC(=O)CCC(=O)Nc1ccccc1[N+](=O)[O-])=N\NC(=O)c1cc2ccccc2cc1O` here?
**A.** 59.6 µM

**Q.** Which TGI does the source give for `O=C(O)c1ccccc1[Se][Se]c1ccccc1C(=O)O` here?
**A.** > 100 µM

**Q.** What does the source list for `Cn1cc(C2=C(c3cn(C)c4ncccc34)C(=O)NC2=O)c2ccccc21`?
**A.** GI50: 8.41 µM; TGI: > 22.9 µM

**Q.** With `Cc1coc2c1CC1(C)C(CCC(O)C1C)C2` (stereo not given) as the molecule, how does the TGI read?
**A.** > 100 µM

**Q.** Which GI50 does the source give for `C#Cc1ccc(-n2c(/C=C/c3ccc(C(F)(F)F)cc3)nc3ncccc3c2=O)cc1` here?
**A.** 1.95 µM

**Q.** What about the TGI of the same molecule?
**A.** > 100 µM

**Q.** With `COc1ccc2c3c1C(=O)CCCC3CO2` (stereo not given) as the molecule, how does the TGI read?
**A.** > 100 µM

System: SK-MEL-28 melanoma
Assay: NCI tumour cell line growth inhibition, 48 h

**Q.** `CC[C@@]1(O)C[C@H](OC2CC(N(C)C)C(O)C(C)O2)c2c(O)c3c(c(O)c2[C@H]1OC1CC(N(C)C)C(O)C(C)O1)C(=O)c1cccc(O)c1C3=O` (stereo not given in full) was tested. Which GI50 did it give?
**A.** < 0.01 µM

**Q.** And the TGI?
**A.** 0.135 µM and 0.0405 µM

**Q.** `COC1(OC)CCC2C1C1CCC(OC)(OC)C21` (stereo not given) was tested. Which TGI did it give?
**A.** > 50 µM

**Q.** Which results are given for `CC/C=C\CCC/C=C1/C(=O)C=C[C@@H]1C/C=C\CCCC(=O)OC`?
**A.** GI50: 3.25 µM; TGI: 10.3 µM

**Q.** Which TGI does the source give for `Cn1cnc([N+](=O)[O-])c1Sc1nnc(-c2cccnc2)n1C` here?
**A.** 35.6 µM

**Q.** With `CCOC(=O)C1=C(C)NC(=S)NC1c1ccccc1` (stereo not given) as the molecule, how does the TGI read?
**A.** > 100 µM

**Q.** `COC1=CC(=O)c2nc(-c3ccncc3)[nH]c2C1=O` was tested. Which GI50 did it give?
**A.** > 100 µM

**Q.** And the TGI?
**A.** > 100 µM

**Q.** For `O=C(/C=C/c1ccccc1)NC1C=Nc2ccc(Cl)cc2NC1=O` (stereo not given), which TGI is on record?
**A.** > 100 µM

**Q.** Which TGI does the source give for `COC1CCC2C(NS(=O)(=O)c3ccc(C)cc3)CCCC2O1` (stereo not given) (tested in a mixture with another compound) here?
**A.** > 34.5 µM

**Q.** With `CC(C)C/C(CC(=O)CCC(=O)Nc1ccccc1[N+](=O)[O-])=N\NC(=O)c1cc2ccccc2cc1O` as the molecule, how does the TGI read?
**A.** > 100 µM

**Q.** With `O=C(O)c1ccccc1[Se][Se]c1ccccc1C(=O)O` as the molecule, how does the TGI read?
**A.** > 100 µM

**Q.** What does the source list for `Cn1cc(C2=C(c3cn(C)c4ncccc34)C(=O)NC2=O)c2ccccc21`?
**A.** GI50: 8.56 µM; TGI: > 25 µM

**Q.** What does the source list for `C#Cc1ccc(-n2c(/C=C/c3ccc(C(F)(F)F)cc3)nc3ncccc3c2=O)cc1`?
**A.** GI50: 1.78 µM; TGI: 3.26 µM

**Q.** With `COc1ccc2c3c1C(=O)CCCC3CO2` (stereo not given) as the molecule, how does the TGI read?
**A.** > 100 µM
